# Test results reported in patent US9902736B2, “1-oxo/acylation-14-acylated oridonin derivative, preparation method therefor and application thereof” (HANGZHOU BENSHENG PHARMACEUTICAL CO., LTD., priority 2012, dated 2018).
# Tests used:
# SK-OV-3 = assay: Solid tumor cell growth inhibition, MTT, 72 h; format: cell-based; details: Homo sapiens, SK-OV-3, 72 h, MTT; for IC50: read-out: IC50 SK-OV-3; for IC90: read-out: IC90 SK-OV-3
# Summary of the method: (§1)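 Plating density was 6000 cells per well, in DMEM High Glucose medium with 10% serum, kept at 37° C in 5% CO2 throughout.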
# RKO = assay: Solid tumor cell growth inhibition, MTT, 72 h; format: cell-based; details: Homo sapiens
# Summary of the method: as §1
# A549 = assay: Solid tumor cell growth inhibition, MTT, 72 h; format: cell-based; details: Homo sapiens
# Summary of the method: as §1
# U87-MG = assay: Solid tumor cell growth inhibition, MTT, 72 h; format: cell-based; details: Homo sapiens, U-87 MG
# Summary of the method: as §1
# Becap-37 = assay: Solid tumor cell growth inhibition, MTT, 72 h; format: cell-based; details: Homo sapiens
# Summary of the method: as §1
# CaEs-17 = assay: Solid tumor cell growth inhibition, MTT, 72 h; format: cell-based; details: Homo sapiens, CaEs17
# Summary of the method: as §1
# PANC-1 = assay: Solid tumor cell growth inhibition, MTT, 72 h; format: cell-based; details: Homo sapiens
# Summary of the method: as §1
# PC-3 = assay: Solid tumor cell growth inhibition, MTT, 72 h; format: cell-based; details: Homo sapiens
# Summary of the method: as §1
# Hep G2 = assay: Solid tumor cell growth inhibition, MTT, 72 h; format: cell-based; details: Homo sapiens, HepG2
# Summary of the method: as §1
# MG-63 = assay: Solid tumor cell growth inhibition, MTT, 72 h; format: cell-based; details: Homo sapiens
# Summary of the method: as §1
# Jurkat = assay: Leukemia cell growth inhibition, MTT, 72 h; format: cell-based, human; details: for IC50 / IC90: Homo sapiens, Jurkat, 72 h, MTT
# Summary of the method: (§2)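 Leukemia lines used were drug-resistant CML K562/ADR, ALL lines H9 and Jurkat, and AML-M2 Kasumi-1. Each was plated at 6000 cells per well and exposed to varying compound concentrations from day two for 72 hours, then assayed by MTT.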
# NB4 = assay: Leukemia cell growth inhibition, MTT, 72 h; format: cell-based, human; details: Homo sapiens, NB-4; 72 h, MTT
# Summary of the method: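 MTT read-out of viable cell concentration after 72 hours of exposure at 37° C under 5% CO2. Compounds were dosed at several concentrations one day after plating 6000 cells per well.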
# H9 = assay: Leukemia cell growth inhibition, MTT, 72 h; format: cell-based, human; details: Homo sapiens, H9; 72 h, MTT
# Summary of the method: as §2
# Hela = assay: Solid tumor cell growth inhibition, MTT, 72 h; format: cell-based, human; details: Homo sapiens, HeLa; 72 h, MTT
# Summary of the method: as §1
# MGC-803 = assay: Solid tumor cell growth inhibition, MTT, 72 h; format: cell-based, human; details: Homo sapiens, MGC-803; 72 h, MTT
# Summary of the method: as §1
# CNE = assay: Solid tumor cell growth inhibition, MTT, 72 h; format: cell-based, human; details: Homo sapiens, CNE; 72 h, MTT
# Summary of the method: as §1
# Hep-2 = assay: Solid tumor cell growth inhibition, MTT, 72 h; format: cell-based, human; details: Homo sapiens, HEp-2; 72 h, MTT
# Summary of the method: as §1
# RPMI 8226 = assay: Multiple myeloma cell growth inhibition, MTT, 72 h; format: cell-based; details: Homo sapiens
# Summary of the method: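 Growth inhibition by MTT after 72 h drug exposure (37 °C, 5% CO2) over a concentration range of oridonin derivatives. RPMI 8226 cells plated at 6000 per well and dosed the following day.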
# Kasumi-1 = assay: Leukemia cell growth inhibition, MTT, 72 h; format: cell-based; details: Homo sapiens
# Summary of the method: as §2
# K562/ADR = assay: Leukemia cell growth inhibition, MTT, 72 h; format: cell-based; details: Homo sapiens
# Summary of the method: as §2
structure (smiles),measurement,setting,value
C=C1C(=O)[C@]23[C@H](OC(=O)c4ccc(OC)cc4)[C@H]1CC[C@H]2[C@@]12CO[C@@]3(O)[C@@H](O)[C@@H]1C(C)(C)CCC2=O [BS-OR-005],IC50,SK-OV-3,1.22 µg/mL
same,IC90,SK-OV-3,3.16 µg/mL
same,IC50,RKO,0.31 µg/mL
same,IC90,RKO,0.84 µg/mL
same,IC50,A549,1.71 µg/mL
same,IC90,A549,4.31 µg/mL
same,IC50,U87-MG,0.7 µg/mL
same,IC90,U87-MG,2.16 µg/mL
same,IC50,Becap-37,0.7 µg/mL
same,IC90,Becap-37,2.78 µg/mL
same,IC50,CaEs-17,0.81 µg/mL
same,IC90,CaEs-17,3.03 µg/mL
same,IC50,PANC-1,1.26 µg/mL
same,IC90,PANC-1,4.91 µg/mL
same,IC50,PC-3,1.22 µg/mL
same,IC90,PC-3,3.16 µg/mL
same,IC50,Hep G2,0.84 µg/mL
same,IC90,Hep G2,5.27 µg/mL
same,IC50,MG-63,0.28 µg/mL
same,IC90,MG-63,0.75 µg/mL
same,IC50,Jurkat,0.44 µg/mL
same,IC90,Jurkat,2.88 µg/mL
same,anti-Jurkat cell line activity increased,Jurkat; as compared with oridonin,~4 fold
same,IC50,NB4,0.07 µg/mL
same,IC90,NB4,0.49 µg/mL
same,IC50,H9,0.38 µg/mL
same,IC90,H9,0.92 µg/mL
same,IC50,Hela,1.16 µg/mL
same,IC90,Hela,3.4 µg/mL
same,IC50,MGC-803,0.7 µg/mL
same,IC90,MGC-803,5.4 µg/mL
same,IC50,CNE,1.09 µg/mL
same,IC90,CNE,4.45 µg/mL
same,IC50,Hep-2,1.3 µg/mL
same,IC90,Hep-2,5.6 µg/mL
same,IC50,RPMI 8226,0.26 µg/mL
same,IC90,RPMI 8226,0.96 µg/mL
same,IC50,Kasumi-1,0.43 µg/mL
same,IC90,Kasumi-1,1.05 µg/mL
same,IC50,K562/ADR,0.4 µg/mL
same,IC90,K562/ADR,1.44 µg/mL
C=C1C(=O)[C@]23[C@H](OC(=O)c4ccncc4)[C@H]1CC[C@H]2[C@@]12CO[C@@]3(O)[C@@H](O)[C@@H]1C(C)(C)CCC2=O [BS-OR-012],IC50,SK-OV-3,3.48 µg/mL
same,IC90,SK-OV-3,7.54 µg/mL
same,IC50,RKO,1.01 µg/mL
same,IC90,RKO,1.98 µg/mL
same,IC50,A549,5.55 µg/mL
same,IC90,A549,10.7 µg/mL
same,IC50,U87-MG,1.88 µg/mL
same,IC90,U87-MG,6.17 µg/mL
same,IC50,Becap-37,2.39 µg/mL
same,IC90,Becap-37,6.29 µg/mL
same,IC50,CaEs-17,2.01 µg/mL
same,IC90,CaEs-17,10 µg/mL
same,IC50,PANC-1,4.11 µg/mL
same,IC90,PANC-1,10.2 µg/mL
same,IC50,PC-3,3.48 µg/mL
same,IC90,PC-3,7.54 µg/mL
same,IC50,Hep G2,3.01 µg/mL
same,IC90,Hep G2,16 µg/mL
same,IC50,MG-63,0.99 µg/mL
same,IC90,MG-63,3.84 µg/mL
same,IC50,Jurkat,0.99 µg/mL
same,IC90,Jurkat,5.77 µg/mL
same,IC50,NB4,0.32 µg/mL
same,IC90,NB4,1.3 µg/mL
same,IC50,H9,0.75 µg/mL
same,IC90,H9,1.99 µg/mL
same,IC50,Hela,2.42 µg/mL
same,IC90,Hela,6.3 µg/mL
same,IC50,MGC-803,1.79 µg/mL
same,IC90,MGC-803,3.99 µg/mL
same,IC50,CNE,2.47 µg/mL
same,IC90,CNE,9.36 µg/mL
same,IC50,Hep-2,3.61 µg/mL
same,IC90,Hep-2,14.7 µg/mL
same,IC50,RPMI 8226,0.92 µg/mL
same,IC90,RPMI 8226,3.48 µg/mL
same,IC50,Kasumi-1,1.15 µg/mL
same,IC90,Kasumi-1,2.39 µg/mL
same,IC50,K562/ADR,0.75 µg/mL
same,IC90,K562/ADR,3.2 µg/mL
